These results are taken from patent publication US5250700A, “Phenyl pyrazolidinones as bronchodilators and anti-inflammatory agents” (American Home Products Corporation, priority 1992, dated 1993).

Broadly, the IC50 is the concentration that gives 50% inhibition.

The test system of the assay is PDE IV. The assay is described as follows: Inhibition of PDE IV isolated from canine tracheal muscle (cAMP metabolism). It is filed as biochemical. The settings on record: canine trachealis PDE IV, 1 μM 3H-cAMP, 10 μM CI-930, 30° C., pH 7.8; reduction expressed relative to 10 μM rolipram. The method, then: The following assay is employed to assess the ability of the compound of the invention to inhibit PDE IV. A solution containing PDE IV is prepared from canine tracheal muscle as follows: The dog is euthanized with an overdose of euthanasia while under anesthesia induced by a 33 mg/kg IV bolus of Nembutal. The trachealis muscle is removed, cleaned of connective tissue, and minced thoroughly. Three to four grams of tissue is then homogenized in Trim-HCl buffer (pH 7.8) using a Polytron. The homogenate is then centrifuged at 25,000×g (4° C.) for 30 minutes. The supernatant is decanted and filtered through four layers of gauze, and applied to a 40 cm×2 cm DEAE-Sepharose column that is equilibrated with Trim-HCl buffer (pH 7.8). The column is then washed with an additional 240 mL of buffer to remove unbound proteins. […] Each fraction is assayed for cAMP- and cGMP- metabolizing PDE activity. Fractions eluting at approximately 0.6 M Na-acetate, and containing CAMP but not CGMP metabolic activity are pooled and used as a PDE stock solution for assaying PDE IV inhibitory activity. […] CI-930 is included as an inhibitor of the cyclic GMP-sensitive, cyclic AMP-selectivePDE (PDE III) that is also present in the PDE IV stock solution when prepared as described above.

Compound `COc1ccc(C2CC(=O)N(C(=O)NN3CCOCC3)N2C)cc1OC1CCCC1` (stereo not drawn) [Example 37, 3-(3-Cyclolpentyloxy-4-methoxyphenyl)-2-methyl-5-oxo-pyrazolidine-1-carboxylic acid morilholin-4-ylamide] returned an IC50 of 3200 nM.

In turn, `COc1ccc(C2CC(=O)N(C(=O)NCCCN3CCCC3=O)N2C)cc1OC1CCCC1` (stereo not drawn) [Example 38, 3-(3-Cyclopentyloxy-4-methoxyphenyl)-2-methyl-5-oxo-pyrazolidine-1-carboxylic acid 3-(2-oxo-pyrrolidin-1-yl) propylamide] registered an IC50 of 560 nM. Under `COc1ccc(C2CC(=O)N(C(=O)NCc3cccs3)N2C)cc1OC1CCCC1` (stereo not drawn) [Example 39, 3-(3-Cyclopentyloxy-4-methoxyphenyl)-2-methyl-5-oxo-pyrazolidine-1-carboxylic acid thiophen-2-yl methylamide] stands 150 nM. Under `COc1ccc(C2CC(=O)N(C(=O)NCCc3cccn3C)N2C)cc1OC1CCCC1` (stereo not drawn) [Example 40, 3-(3-Cyclopentyloxy-4-methoxyphenyl)-2-methyl-5-oxo-pyrazolidine-1-carboxylic acid 2-(1-methyl-1H-pyrrol-2-yl) ethylamide] stands 190 nM; under `COc1ccc(C2CC(=O)N(C(=O)NCCN3CCOCC3)N2C)cc1OC1CCCC1` (stereo not drawn) [Example 41, 3-(3-Cyclolpentyloxy-4-methoxyphenyl)-2-methyl-5-oxo-pyrazolidine-1-carboxylic acid 2-morlpholin-4-yl ethylamide], 2400 nM.

Regarding `COc1ccc(C2CC(=O)N(C(=O)NCCCn3ccnc3)N2C)cc1OC1CCCC1` (stereo not drawn) [Example 42, 3-(3-Cyclopentyloxy-4-methoxyphenyl)-2-methyl-5-oxo-pyrazolidine-1-carboxylic acid 3-imidazol-1-yl propylamide], the IC50 was determined as 210 nM. Compared with the last compound, the IC50 is about 11-fold lower.
